Here are results for eleven molecules from the NIST ThermoML archive (doi:10.1021/je900807v).

Each structure is given as a SMILES string. Numbers after ± are expanded uncertainties.

The conditions of series [1]: 298.15 K, 101.33 kPa, Liquid.
The nature of series [2]: refractive index (Na D-line) (dimensionless). The following applies: 298.15 K; 101.33 kPa; Liquid; Standard Abbe refractometry.
Series [3] is described as follows: xn = mol fraction of the nth substance listed. The following applies: 298.15 K, 101 kPa, Liquid.

For the molecule `c1ccccc1` [benzene], the mass density (usually mass per unit of volume) in series [1] is on record as 873.57 ± 0.17 kg/m3. Further, in series [2], the refractive index (in general, the speed of light in vacuum divided by its phase velocity in the sample) is recorded as 1.49774 ± 0.00068.
`CCOS(=O)(=O)[O-].CC[n+]1cccc(C)c1` [1-ethyl-3-methylpyridinium ethylsulfate]: the mass density in series [1] (Vibrating tube method) stood at 1219.61 ± 0.42 kg/m3. The refractive index in series [2] is 1.50591 ± 0.0007.
Turning to `CCc1ccccc1` [ethylbenzene], the mass density in series [1] stood at 862.51 ± 0.18 kg/m3. Further, in series [2], the refractive index is 1.49304 ± 0.00068.
For the molecule `Cc1ccccc1` [toluene] + CC1CCCCC1, the mass density in series [3] (x2 = 0) is on record as 862.17 ± 0.18 kg/m3.
In the case of `CC1CCCCC1` [methylcyclohexane], the mass density in series [1] was determined as 765.02 ± 0.36 kg/m3. In addition, the refractive index in series [2] came to 1.42062 ± 0.0007.
In the case of `CCc1ccccc1` [ethylbenzene] + CC1CCCCC1, the mass density in series [3] (x2 = 0) is 862.51 ± 0.18 kg/m3.
Regarding `c1ccccc1` [benzene] + CC1CCCCC1, the mass density in series [3] (x2 = 0) is on record as 873.57 ± 0.17 kg/m3.
Consider `CC1CCCCC1` [methylcyclohexane] + CCc1ccccc1, for which the mass density in series [3] (x1 = 0.0494) stood at 857.22 ± 0.19 kg/m3; in series [3] (x1 = 0.0975), 852.13 ± 0.19 kg/m3; in series [3] (x1 = 0.1983), 841.55 ± 0.21 kg/m3; in series [3] (x1 = 0.2981) it was 831.2 ± 0.23 kg/m3; in series [3] (x1 = 0.4008), 820.93 ± 0.25 kg/m3; in series [3] (x1 = 0.5005), 811.01 ± 0.26 kg/m3. Also, the mass density in series [3] (x1 = 0.6001) is reported as 801.41 ± 0.28 kg/m3; in series [3] (x1 = 0.7006), 792.06 ± 0.3 kg/m3; in series [3] (x1 = 0.7952), 783.15 ± 0.32 kg/m3; in series [3] (x1 = 0.8949), 774.23 ± 0.34 kg/m3; in series [3] (x1 = 0.9495) it was 769.34 ± 0.35 kg/m3; in series [3] (x1 = 1) it was 765.02 ± 0.36 kg/m3.
Take `Cc1ccccc1` [toluene]: in series [1], the mass density amounted to 862.17 ± 0.18 kg/m3. Also, the refractive index in series [2] is 1.49399 ± 0.00068.
With `CC1CCCCC1` [methylcyclohexane] + Cc1ccccc1, the mass density stood at 855.9 ± 0.18 kg/m3 in series [3] (x1 = 0.05); 849.91 ± 0.19 kg/m3 in series [3] (x1 = 0.0998); 838.24 ± 0.21 kg/m3 in series [3] (x1 = 0.198); 827.41 ± 0.22 kg/m3 in series [3] (x1 = 0.2951); 816.83 ± 0.24 kg/m3 in series [3] (x1 = 0.3968); 806.9 ± 0.26 kg/m3 in series [3] (x1 = 0.4959). Moreover, the mass density in series [3] (x1 = 0.5973) is 797.45 ± 0.28 kg/m3; in series [3] (x1 = 0.697), 788.64 ± 0.3 kg/m3; in series [3] (x1 = 0.7954) it was 780.42 ± 0.32 kg/m3; in series [3] (x1 = 0.8932), 772.71 ± 0.34 kg/m3; in series [3] (x1 = 0.9487), 768.66 ± 0.35 kg/m3; in series [3] (x1 = 1), 765.02 ± 0.36 kg/m3.
Regarding `CC1CCCCC1` [methylcyclohexane] + c1ccccc1, the mass density in series [3] (x1 = 0.0504) is recorded as 865.01 ± 0.18 kg/m3; in series [3] (x1 = 0.099), 857.13 ± 0.19 kg/m3; in series [3] (x1 = 0.1998) it was 841.92 ± 0.2 kg/m3; in series [3] (x1 = 0.2978), 829.01 ± 0.22 kg/m3; in series [3] (x1 = 0.3991), 816.54 ± 0.24 kg/m3; in series [3] (x1 = 0.4993), 805.76 ± 0.26 kg/m3. Besides, the mass density in series [3] (x1 = 0.598) worked out at 796.03 ± 0.28 kg/m3; in series [3] (x1 = 0.6991), 787.22 ± 0.3 kg/m3; in series [3] (x1 = 0.7981) it was 779.31 ± 0.32 kg/m3; in series [3] (x1 = 0.8961), 772.04 ± 0.34 kg/m3; in series [3] (x1 = 0.9523) it was 768.25 ± 0.35 kg/m3; in series [3] (x1 = 1), 765.02 ± 0.36 kg/m3.
